± gives the expanded uncertainty stated by the source.
Assay: refractive index (other wavelength) (dimensionless); xn = mol fraction of the nth substance listed
Settings: 313.15 K, 101 kPa, Liquid, Standard Abbe refractometry

CC(C)OC(C)C [diisopropyl ether] + CO
refractive index
Settings | Wavelength=587.6 nm | Wavelength=589.3 nm | Wavelength=632.8 nm | Wavelength=644 nm
x2 = 0 | – | 1.35694 ± 0.00044 | 1.35572 ± 0.00043 | 1.35543 ± 0.00043
x2 = 0.0423 | – | 1.35688 ± 0.00043 | 1.35563 ± 0.00043 | 1.35534 ± 0.00043
x2 = 0.0424 | – | 1.3569 ± 0.00043 | 1.35568 ± 0.00043 | 1.3554 ± 0.00043
x2 = 0.082 | – | 1.35685 ± 0.00042 | 1.35562 ± 0.00042 | 1.35532 ± 0.00042
x2 = 0.0822 | – | 1.35704 ± 0.00042 | 1.35581 ± 0.00042 | 1.35552 ± 0.00042
x2 = 0.1171 | – | 1.3569 ± 0.00041 | 1.35567 ± 0.00041 | 1.35538 ± 0.00041
x2 = 0.1271 | – | 1.35691 ± 0.00041 | 1.35566 ± 0.00041 | 1.35538 ± 0.00041
x2 = 0.1827 | – | 1.35671 ± 0.0004 | 1.35548 ± 0.0004 | 1.35518 ± 0.0004
x2 = 0.2162 | – | 1.35656 ± 0.0004 | 1.35535 ± 0.0004 | 1.35505 ± 0.0004
x2 = 0.251 | – | 1.35622 ± 0.00039 | 1.35489 ± 0.00039 | 1.3546 ± 0.00039
x2 = 0.3298 | – | 1.35621 ± 0.00038 | 1.35494 ± 0.00038 | 1.35463 ± 0.00038
x2 = 0.3577 | – | 1.3559 ± 0.00038 | 1.35417 ± 0.00038 | 1.35388 ± 0.00038
x2 = 0.4497 | – | 1.35414 ± 0.00037 | 1.35292 ± 0.00037 | 1.35264 ± 0.00037
x2 = 0.4525 | – | 1.35454 ± 0.00037 | 1.35331 ± 0.00037 | 1.35302 ± 0.00037
x2 = 0.522 | – | 1.35241 ± 0.00035 | 1.3512 ± 0.00035 | 1.35091 ± 0.00035
x2 = 0.5543 | 1.3516 ± 0.00035 | 1.35155 ± 0.00035 | 1.35036 ± 0.00035 | 1.35008 ± 0.00035
x2 = 0.609 | 1.34934 ± 0.00034 | 1.34929 ± 0.00034 | 1.3481 ± 0.00034 | 1.34783 ± 0.00034
x2 = 0.6529 | 1.34786 ± 0.00034 | 1.34781 ± 0.00034 | 1.34667 ± 0.00034 | 1.34638 ± 0.00034
x2 = 0.7504 | 1.34401 ± 0.00033 | 1.34396 ± 0.00033 | 1.34279 ± 0.00033 | 1.34252 ± 0.00033
x2 = 0.804 | 1.33965 ± 0.00033 | 1.3396 ± 0.00035 | 1.33846 ± 0.00033 | 1.33821 ± 0.00033
x2 = 0.807 | 1.33975 ± 0.00033 | 1.3409 ± 0.00033 | 1.33854 ± 0.00033 | 1.33829 ± 0.00033
x2 = 0.8727 | 1.33626 ± 0.00032 | 1.33609 ± 0.00032 | 1.33509 ± 0.00032 | 1.33482 ± 0.00032
x2 = 0.9233 | 1.3284 ± 0.00033 | 1.32835 ± 0.00033 | 1.32726 ± 0.00033 | 1.32702 ± 0.00033
x2 = 0.9253 | 1.33006 ± 0.00032 | 1.33001 ± 0.00032 | 1.32891 ± 0.00032 | 1.32867 ± 0.00032
x2 = 0.9527 | 1.32712 ± 0.00032 | 1.32708 ± 0.00032 | 1.32598 ± 0.00032 | –
x2 = 0.9773 | 1.32383 ± 0.00032 | 1.32378 ± 0.00032 | 1.32372 ± 0.00032 | –
x2 = 0.989 | 1.32263 ± 0.00032 | 1.32259 ± 0.00032 | 1.32154 ± 0.00032 | –
x2 = 0.9964 | 1.32167 ± 0.00032 | 1.32163 ± 0.00032 | 1.32058 ± 0.00032 | –
